Source: PubChem BioAssay (NCI)
“And” between values parts separate entries of the source, which are not always exact repeats. Equal entries are not always repeated.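 Test compounds were applied to cells in 96-well plates for 48 hours at 5 doses. GI50 marks 50% less growth. The concentration for full growth arrest is given as TGI.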

Legend:
Assay in all cases: DTP human tumour cell line panel, 48 h
DLD-1 colon = test system: DLD-1 colon
DMS 114 small cell lung = test system: DMS 114 small cell lung
DMS 273 small cell lung = test system: DMS 273 small cell lung
KM20L2 colon = test system: KM20L2 colon
RXF-631 renal = test system: RXF-631 renal
XF 498 CNS = test system: XF 498 CNS
HOP-18 NSCLC = test system: HOP-18 NSCLC
T-47D breast = test system: T-47D breast
MDA-N = test system: MDA-N

For `CC(=O)N1CCN(C=S)CC1`, the TGI (DLD-1 colon) was > 100 µM, the TGI (DMS 114 small cell lung) was > 100 µM and the TGI (DMS 273 small cell lung) was > 100 µM. For the same compound, the TGI (KM20L2 colon) was > 100 µM, the TGI (RXF-631 renal) was > 100 µM and the TGI (XF 498 CNS) was > 100 µM.
`CCC12C=CCN3CCC4(C(=C(C(=O)OC)C1)Nc1ccccc14)[C@H]32` (some centres not stated) was tested, and the TGI (DLD-1 colon) was > 100 µM, the TGI (DMS 114 small cell lung) was 49.5 µM and the TGI (DMS 273 small cell lung) was 42.8 µM. For the same compound, the TGI (HOP-18 NSCLC) was > 100 µM and the TGI (KM20L2 colon) was 47.6 µM.
For `N#CC1([N+](=O)[O-])C=C1c1ccccc1` (configuration not stated), the TGI (DLD-1 colon) was > 100 µM, the TGI (DMS 114 small cell lung) was > 100 µM and the TGI (DMS 273 small cell lung) was > 100 µM. For the same compound, the TGI (KM20L2 colon) was > 100 µM and the TGI (RXF-631 renal) was > 100 µM.
In the case of `COC(=O)C(C(=O)C(=O)Nc1ccc(N)cc1[N+](=O)[O-])c1nc2ccc(Cl)cc2[nH]c1=O` (configuration not stated), the TGI (DLD-1 colon) is reported as > 100 µM, the TGI (DMS 114 small cell lung) is reported as > 100 µM and the TGI (DMS 273 small cell lung) is reported as > 100 µM. The TGI (HOP-18 NSCLC) was > 100 µM, the TGI (KM20L2 colon) was > 100 µM and the TGI (XF 498 CNS) was > 100 µM.
For `N#CCCn1c(CCC(=O)Nc2ccc(Cl)cc2Cl)n[nH]c1=S`, the TGI (DLD-1 colon) was > 100 µM, the TGI (DMS 114 small cell lung) was > 100 µM and the TGI (DMS 273 small cell lung) was > 100 µM. The TGI (KM20L2 colon) was > 100 µM, the TGI (RXF-631 renal) was > 100 µM and the TGI (XF 498 CNS) was > 100 µM.
With `COC(=O)C1=C(O)C(C(=O)OC)[C@@]2(O)[C@@H](C(=O)OC)C(c3ccccc3Cl)C[C@@H]1[C@@H]2C(=O)OC` (some centres not stated) the GI50 (T-47D breast) was 11.6 µM and the TGI (T-47D breast) was 40.3 µM.
`NC(=S)N=Nc1c(O)[nH]c2ccccc12` gave a GI50 (T-47D breast) of 184 µM and a TGI (T-47D breast) of 617 µM.
In the case of `CCCCCCC(=O)CC(=O)C(=O)Nc1ccccc1C`, the TGI (DLD-1 colon) is reported as > 100 µM, the TGI (DMS 114 small cell lung) is reported as > 100 µM and the TGI (DMS 273 small cell lung) is reported as > 100 µM. The TGI (HOP-18 NSCLC) was > 100 µM, the TGI (KM20L2 colon) was > 100 µM and the TGI (RXF-631 renal) was > 100 µM. The TGI (XF 498 CNS) was > 100 µM.
Work on `CCCCCCCCC(=O)NCCN(CCN)C(=O)CCCCCCCC` yielded a TGI (DLD-1 colon) of 10.4 µM, a TGI (DMS 114 small cell lung) of 10.1 µM and a TGI (DMS 273 small cell lung) of 6.65 µM. It also gave a TGI (HOP-18 NSCLC) of 31 µM, a TGI (KM20L2 colon) of 9.55 µM and a TGI (MDA-N) of 11.6 µM. The TGI (RXF-631 renal) was 13 µM, the TGI (T-47D breast) was 32.9 µM and the TGI (XF 498 CNS) was 5.43 µM.
In the case of `N#CC1C(=O)NC(=O)C(C#N)C1c1ccc(Cl)c(Cl)c1` (configuration not stated), the TGI (T-47D breast) is reported as > 100 µM.
In the case of `COn1cc(C(=O)N=C(SC)SC)c2ccccc21`, the GI50 (T-47D breast) is reported as 75.1 µM and the TGI (T-47D breast) is reported as > 100 µM.
In the case of `O=C1OC(=O)C2C1C1C(c3ccccc3)=C(c3ccccc3)C2(O)C2C(=O)OC(=O)C12` (configuration not stated), the TGI (DLD-1 colon) is reported as > 100 µM, the TGI (DMS 114 small cell lung) is reported as > 100 µM and the TGI (KM20L2 colon) is reported as > 100 µM.
`CN1CCN(Cc2ccc(NC(=O)c3[nH]ncc3Nc3cc(OC4CCCC4)ncn3)cc2)CC1` gave a GI50 (T-47D breast) of 5.06 µM and a TGI (T-47D breast) of 21.5 µM.
In the case of `CCN1C(=O)N(CC)C2C1NN=c1s/c(=C\c3cnc(C)n3C)c(=O)n12` (configuration not stated), the GI50 (T-47D breast) is reported as 4.81 µM and the TGI (T-47D breast) is reported as > 100 µM.
For `CC(=O)Nc1cc(CN2CCCCC2)c(O)c2ncccc12`, the TGI (MDA-N) was > 100 µM and the TGI (T-47D breast) was > 100 µM.
In the case of `C/C(=N\NS(=O)(=O)c1ccccc1)c1ccc[n+]([O-])n1`, the TGI (DLD-1 colon) is reported as > 100 µM, the TGI (DMS 114 small cell lung) is reported as > 100 µM and the TGI (DMS 273 small cell lung) is reported as > 100 µM. The TGI (HOP-18 NSCLC) was > 100 µM, the TGI (KM20L2 colon) was > 100 µM and the TGI (RXF-631 renal) was > 100 µM.
For `O=C(O)CSc1nnc2c3ccccc3c3ccccc3c2n1`, the TGI (MDA-N) was > 100 µM.
With `CC(=O)N1c2ccc(-c3ccc(C(=O)O)cc3)cc2[C@H](Nc2ccc(Cl)cc2)C[C@@H]1C` the GI50 (T-47D breast) was 0.108 µM and the TGI (T-47D breast) was 31 µM.
`Nc1nc(N)c(-c2ccc(Cl)cc2)c(/C=C/c2ccc([N+](=O)[O-])cc2)n1` was tested, and the GI50 (T-47D breast) was 6.19 µM and the TGI (T-47D breast) was > 100 µM.
In the case of `CN1C(=O)C(C)(C)Oc2c(-c3cn(C)c(=O)c4[nH]ccc34)cc(S(C)(=O)=O)cc21`, the GI50 (T-47D breast) is reported as 0.808 µM and the TGI (T-47D breast) is reported as > 100 µM.
With `N#CC(CC(=O)O)=C(c1ccccc1)c1ccccc1` the TGI (MDA-N) was > 100 µM.
`O=C(N/N=C/c1cccc(O)c1)c1ccc(C(F)(F)F)nc1Nc1cccc(C(F)(F)F)c1` was tested, and the GI50 (T-47D breast) was 1.54 µM and the TGI (T-47D breast) was 7.08 µM.
With `C[C@H](CCCOS(C)(=O)=O)[C@H]1CC[C@H]2[C@@H]3CC[C@@H]4C[C@H](OS(C)(=O)=O)CC[C@]4(C)[C@H]3CC[C@]12C` the GI50 (T-47D breast) was 1040 µM and the TGI (T-47D breast) was > 2500 µM.
For `CN(C)c1ccc(/C=c2\sc3nnc(Cc4ccccc4)n3c2=O)cc1`, the GI50 (DLD-1 colon) was > 100 µM, the TGI (DLD-1 colon) was > 100 µM and the GI50 (DMS 114 small cell lung) was > 10 µM. For the same compound, the TGI (DMS 114 small cell lung) was > 10 µM and 33.8 µM, the GI50 (DMS 273 small cell lung) was > 10 µM and the TGI (DMS 273 small cell lung) was > 100 µM. For the same compound, the GI50 (HOP-18 NSCLC) was > 100 µM, the TGI (HOP-18 NSCLC) was > 100 µM and the GI50 (KM20L2 colon) was > 100 µM. For the same compound, the TGI (KM20L2 colon) was > 100 µM, the GI50 (XF 498 CNS) was > 100 µM and the TGI (XF 498 CNS) was > 100 µM.
In the case of `CC(C)CC1NC(=O)C(C(C)C)NC(=O)CC(C)COC(=O)C(CC(C)C)N(C)C(=O)C(C(C)C)NC(=O)C(C(C)C)OC1=O` (configuration not stated), the TGI (MDA-N) is reported as > 50 µM and the TGI (T-47D breast) is reported as > 50 µM.
`COc1ccc(CNC(=O)c2c(C)n([O-])c3cc(F)c(F)cc3[n+]2=O)cc1` showed a GI50 (T-47D breast) of 3.33 µM and a TGI (T-47D breast) of 16.1 µM.
`C=C1CC(CC(=O)C(C)CC2CC(=C)C(=O)O2)OC1=O` (configuration not stated) was tested, and the TGI (DLD-1 colon) was 30.4 µM, the TGI (DMS 114 small cell lung) was 39 µM and the TGI (DMS 273 small cell lung) was 57.5 µM. The TGI (HOP-18 NSCLC) was 47.3 µM, the TGI (KM20L2 colon) was > 100 µM and the TGI (RXF-631 renal) was > 100 µM. It also gave a TGI (XF 498 CNS) of 43.3 µM.
`C[C@H](c1ccc(Cl)cc1[N+](=O)[O-])N1C(=O)c2cc(I)ccc2NC(=O)[C@H]1c1ccc(Cl)cc1` was tested, and the GI50 (T-47D breast) was 5.37 µM and the TGI (T-47D breast) was > 100 µM.
For `CN(C)c1ccc(/C=N/NC(=O)c2cnc3ccccc3c2)cc1`, the TGI (MDA-N) was > 100 µM.
In the case of `CCc1cccc(CC)c1NC(=O)C1=CNC(C)=C(C(=O)Nc2c(CC)cccc2CC)C1c1ccc(O)c(OC)c1` (configuration not stated), the TGI (DLD-1 colon) is reported as > 100 µM, the TGI (DMS 114 small cell lung) is reported as > 100 µM and the TGI (KM20L2 colon) is reported as > 100 µM. For the same compound, the TGI (RXF-631 renal) was > 100 µM and the TGI (XF 498 CNS) was 67.3 µM.
For `CCC(=O)Oc1ccc(/C=N/NC(N)=S)nc1`, the GI50 (T-47D breast) was 5.83 µM and the TGI (T-47D breast) was > 100 µM.
With `O=C1CC2OCC=C3CN4CCC56c7ccccc7N1C5C2C3CC46` (configuration not stated) (tested in a mixture with another compound) the GI50 (MDA-N) was > 50 µg/mL, the TGI (MDA-N) was > 50 µg/mL and the GI50 (T-47D breast) was > 50 µg/mL. The TGI (T-47D breast) was > 50 µg/mL.
With `CCCC(CCC)C(=O)O` the TGI (MDA-N) was > 100 µM, the GI50 (T-47D breast) was > 100 µM and the TGI (T-47D breast) was > 20000 µM.
In the case of `CC1CCC2[C@@H](C)COC3O[C@]4(C)CCC1C32OO4` (some centres not stated), the TGI (DLD-1 colon) is reported as > 100 µM, the TGI (DMS 114 small cell lung) is reported as > 100 µM and the TGI (DMS 273 small cell lung) is reported as > 100 µM. The TGI (HOP-18 NSCLC) was > 100 µM and the TGI (KM20L2 colon) was > 100 µM.
In the case of `COc1cc2c3c(n(CCCN4CCN(CCO)CC4)c(=O)c2cc1OC)-c1cc2c(cc1C3=O)OCO2`, the GI50 (T-47D breast) is reported as > 100 µM and the TGI (T-47D breast) is reported as > 100 µM.
`O=[N+]([O-])c1ccc2nc(=S)[nH]n2c1` was tested, and the TGI (T-47D breast) was > 100 µM.
In the case of `O=C1/C(=C/c2cccc(F)c2)CN(C(=O)C(Cl)Cl)C/C1=C\c1cccc(F)c1`, the GI50 (T-47D breast) is reported as 0.317 µM and the TGI (T-47D breast) is reported as 1.76 µM.
`CC1SC(c2cccc(Cl)c2)N(NC(=O)C(O)c2ccccc2)C1=O` (configuration not stated) was tested, and the GI50 (T-47D breast) was > 100 µM and the TGI (T-47D breast) was > 100 µM.
`COC(=O)CCc1c(/C=C2\N=C(c3ccc[nH]3)C=C2OC)[nH]c(C)c1C(=O)OCc1ccccc1` showed a GI50 (T-47D breast) of 0.235 µM and a TGI (T-47D breast) of 1.45 µM.
